Measured values published in patent US20260274829A1, “NEW E3 UBIQUITIN LIGASE LIGAND, PROTEIN DEGRADATION AGENT AND USE THEREOF” (GLUETACS THERAPEUTICS (SHANGHAI) CO., LTD., priority 2023, published 2026).
pIC50: −log10 of the molar value.

Target: T1, human Cereblon WT GST-tagged protein (Homo sapiens, UniProt Q96SW2)
T1 construct: purchased CISBIO 64BDCRBNPEH
Assay: CRBN binding, HTRF CEREBLON BINDING kit
Settings: CRBN binding, HTRF CEREBLON BINDING kit
How it was run: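 HTRF competition in which test compounds displace a Thalidomide-Re tracer from GST-tagged human Cereblon WT, detected with a GST Eu antibody. Incubation lasted 3 hours at room temperature, with emission read at 620 and 665 nm. Inhibition rate was derived from 665/620 ratios relative to blank and solvent control wells.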

T1 sequence (Q96SW2 whole entry): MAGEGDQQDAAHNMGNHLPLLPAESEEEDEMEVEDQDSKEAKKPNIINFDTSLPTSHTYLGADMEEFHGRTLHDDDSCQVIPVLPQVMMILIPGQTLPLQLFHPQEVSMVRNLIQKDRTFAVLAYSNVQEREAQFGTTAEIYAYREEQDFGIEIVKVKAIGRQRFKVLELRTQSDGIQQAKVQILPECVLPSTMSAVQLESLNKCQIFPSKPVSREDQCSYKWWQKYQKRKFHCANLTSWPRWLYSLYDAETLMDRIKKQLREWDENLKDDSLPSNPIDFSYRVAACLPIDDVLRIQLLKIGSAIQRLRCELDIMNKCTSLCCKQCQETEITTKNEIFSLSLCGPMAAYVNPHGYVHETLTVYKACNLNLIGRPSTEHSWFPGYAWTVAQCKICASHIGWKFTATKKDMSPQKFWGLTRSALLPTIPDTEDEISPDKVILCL

Row | Compound | pIC50
1 | CC(C)(O)c1cc2nc(C3CCN(Cc4ccc(N5CCC(=O)NC5=O)cc4)CC3)oc2cc1NC(=O)c1cccc(C(F)(F)F)n1 [GT-05772, N-(2-(1-(4-(2,4-dioxotetrahydropyrimidin-1(2H)-yl)benzyl)piperidin-4-yl)-5-(2-hydroxypropan-2-yl)benzo[d]oxazol-6-yl)-6-(trifluoromethyl)picolinamide] | 5.72 to 6.00
2 | O=C1CCN(c2cccc(CN3C[C@H]4C[C@@H]3CN4c3ccc(-c4cc(F)c5c(c4)C(=O)N(C(C(=O)Nc4nccs4)c4ncn6c4CCC6)C5)cc3)c2)C(=O)N1 (stereo partly drawn) [GT-06178, 2-(6,7-dihydro-5H-pyrrolo[1,2-c]imidazol-1-yl)-2-(6-(4-((1R,4R)-5-(3-(2,4-dioxotetrahydropyrimidin-1(2H)-yl)benzyl)-2,5-diazabicyclo[2.2.1]heptan-2-yl)phenyl)-4-fluoro-1-oxoisoindolin-2-yl)-N-(thiazol-2-yl)acetamide] | > 6.30
3 | O=C1CCC(c2cnc(F)c(CN3C[C@H]4C[C@@H]3CN4c3ccc(-c4cc(F)c5c(c4)C(=O)N(C(C(=O)Nc4nccs4)c4ncn6c4CCC6)C5)cc3)c2)C(=O)N1 (stereo partly drawn) [GT-07562, 2-(6,7-dihydro-5H-pyrrolo[1,2-c]imidazol-1-yl)-2-(6-(4-((1R,4R)-5-((5-(2,6-dioxopiperidin-3-yl)-2-fluoropyridin-3-yl)methyl)-2,5-diazabicyclo[2.2.1]heptan-2-yl)phenyl)-4-fluoro-1-oxoisoindolin-2-yl)-N-(thiazol-2-yl)acetamide] | > 6.30
4 | Cc1ccc(-c2c(C)noc2C)cc1N(CC1CCN(Cc2ccc(N3CCC(=O)NC3=O)c(F)c2)CC1)c1ccc(C2(C#N)CC2)cc1 [GT-04843, 1-(4-((5-(3,5-dimethylisoxazol-4-yl)-2-methylphenyl)((1-(4-(2,4-dioxotetrahydropyrimidin-1(2H)-yl)-3-fluorobenzyl)piperidin-4-yl)methyl)amino)phenyl)cyclopropane-1-carbonitrile] | 5.72 to 6.00
5 | COc1cc2nn(C3CCN(Cc4ccc(N5CCC(=O)NC5=O)c(F)c4)CC3)cc2cc1NC(=O)c1cccc(C(F)(F)F)n1 [GT-04775, N-(2-(1-(4-(2,4-dioxotetrahydropyrimidin-1(2H)-yl)-3-fluorobenzyl)piperidin-4-yl)-6-methoxy-2H-indazol-5-yl)-6-(trifluoromethyl)picolinamide] | 5.72 to 6.00
6 | CN1CCN([C@@H]2CCCN(c3cnc(C(N)=O)c(Nc4ccc(C5CCN(Cc6cccc(N7CCC(=O)NC7=O)c6)CC5)cc4)n3)C2)C1=O [GT-04800, (R)-3-((4-(1-(3-(2,4-dioxotetrahydropyrimidin-1(2H)-yl)benzyl)piperidin-4-yl)phenyl)amino)-5-(3-(3-methyl-2-oxoimidazolidin-1-yl)piperidin-1-yl)pyrazine-2-carboxamide] | 6.00 to 6.30
7 | O=C1CCN(c2ccc(CN3CCN(C4CCN(c5ccc(-c6cc(F)c7c(c6)C(=O)N(C(C(=O)Nc6nccs6)c6ncn8c6CCC8)C7)cc5)CC4(F)F)CC3)cc2)C(=O)N1 (stereo not shown) [GT-06318, 2-(6,7-dihydro-5H-pyrrolo[1,2-c]imidazol-1-yl)-2-(6-(4-(4-(4-(4-(2,4-dioxotetrahydropyrimidin-1(2H)-yl)benzyl)piperazin-1-yl)-3,3-difluoropiperidin-1-yl)phenyl)-4-fluoro-1-oxoisoindolin-2-yl)-N-(thiazol-2-yl)acetamide] | 5.72 to 6.00
8 | O=C1CCC(c2cc(CN3C[C@H]4C[C@@H]3CN4c3ccc(-c4cc(F)c5c(c4)C(=O)N(C(C(=O)Nc4nccs4)c4ncn6c4CCC6)C5)cc3)ccn2)C(=O)N1 (stereo partly drawn) [GT-07390, 2-(6,7-dihydro-5H-pyrrolo[1,2-c]imidazol-1-yl)-2-(6-(4-((1R,4R)-5-((2-(2,6-dioxopiperidin-3-yl)pyridin-4-yl)methyl)-2,5-diazabicyclo[2.2.1]heptan-2-yl)phenyl)-4-fluoro-1-oxoisoindolin-2-yl)-N-(thiazol-2-yl)acetamide] | 6.00 to 6.30
9 | COc1cc2nn(C3CCN(Cc4ccc(N5CCC(=O)NC5=O)cc4F)CC3)cc2cc1NC(=O)c1cccc(C(F)(F)F)c1 [GT-04753, N-(2-(1-(4-(2,4-dioxotetrahydropyrimidin-1(2H)-yl)-2-fluorobenzyl)piperidin-4-yl)-6-methoxy-2H-indazol-5-yl)-3-(trifluoromethyl)benzamide] | 5.72 to 6.00
10 | O=C1CCN(c2cccc(CN3C4CCC3CN(c3ccc(-c5cc(F)c6c(c5)C(=O)N(C(C(=O)Nc5nccs5)c5ncn7c5CCC7)C6)cc3)C4)c2)C(=O)N1 (stereo not shown) [GT-06254, 2-(6,7-dihydro-5H-pyrrolo[1,2-c]imidazol-1-yl)-2-(6-(4-(8-(3-(2,4-dioxotetrahydropyrimidin-1(2H)-yl)benzyl)-3,8-diazabicyclo[3.2.1]octan-3-yl)phenyl)-4-fluoro-1-oxoisoindolin-2-yl)-N-(thiazol-2-yl)acetamide] | > 6.30
11 | O=C1CCN(c2ccc(CN3CCC(N4CCN(c5ccc(-c6cc(F)c7c(c6)C(=O)N(C(C(=O)Nc6nccs6)c6ncn8c6CCC8)C7)cc5)CC4)CC3)cc2)C(=O)N1 (stereo not shown) [GT-06327, 2-(6,7-dihydro-5H-pyrrolo[1,2-c]imidazol-1-yl)-2-(6-(4-(4-(1-(4-(2,4-dioxotetrahydropyrimidin-1(2H)-yl)benzyl)piperidin-4-yl)piperazin-1-yl)phenyl)-4-fluoro-1-oxoisoindolin-2-yl)-N-(thiazol-2-yl)acetamide] | 6.00 to 6.30

Continued, values first:

Row | pIC50 | Compound
12 | 5.72 to 6.00 | O=C1CCN(c2ccc(CN3CCN(C4CCN(c5ccc(Nc6ncc7nc(Nc8ccccc8)n(C8CCCC8)c7n6)cc5)CC4)CC3)nc2)C(=O)N1 [GT-05941, 1-(6-((4-(1-(4-((9-cyclopentyl-8-(phenylamino)-9H-purin-2-yl)amino)phenyl)piperidin-4-yl)piperazin-1-yl)methyl)pyridin-3-yl)dihydropyrimidine-2,4(1H,3H)-dione]
13 | > 6.30 | COc1cc(N2CCC(N3CCN(Cc4ccc(C5CCC(=O)NC5=O)cc4)CC3)CC2)ccc1Nc1ncc(Cl)c(Nc2ccccc2P(C)(C)=O)n1 (stereo not shown) [GT-07602, 3-(4-((4-(1-(4-((5-chloro-4-((2-(dimethylphosphoryl)phenyl)amino)pyrimidin-2-yl)amino)-3-methoxyphenyl)piperidin-4-yl)piperazin-1-yl)methyl)phenyl)piperidine-2,6-dione]
14 | 6.00 to 6.30 | Cc1nc2c(F)cc(-c3nc(Nc4ccc(N5CCC(N(C)Cc6ccc(C7CCC(=O)NC7=O)cc6)CC5)cn4)ncc3F)cc2n1C(C)C (stereo not shown) [GT-06735, 3-(4-(((1-(6-((5-fluoro-4-(4-fluoro-1-isopropyl-2-methyl-1H-benzo[d]imidazol-6-yl)pyrimidin-2-yl)amino)pyridin-3-yl)piperidin-4-yl)(methyl)amino)methyl)phenyl)piperidine-2,6-dione]
15 | 6.00 to 6.30 | Nc1nc(Nc2ccc(S(=O)(=O)N3CCN(Cc4ccc(C5CCC(=O)NC5=O)cc4)CC3)cc2)nn1C(=O)c1c(F)cccc1F (stereo not shown) [GT-06750, 3-(4-((4-((4-((5-amino-1-(2,6-difluorobenzoyl)-1H-1,2,4-triazol-3-yl)amino)phenyl)sulfonyl)piperazin-1-yl)methyl)phenyl)piperidine-2,6-dione]
16 | 6.00 to 6.30 | CN(Cc1ccc(N2CCC(=O)NC2=O)cn1)C1CCN(c2ccc(Nc3ncc4nc(Nc5ccccc5)n(C5CCCC5)c4n3)cc2)CC1 [GT-07093, 1-(6-(((1-(4-((9-cyclopentyl-8-(phenylamino)-9H-purin-2-yl)amino)phenyl)piperidin-4-yl)(methyl)amino)methyl)pyridin-3-yl)dihydropyrimidine-2,4(1H,3H)-dione]
17 | 6.00 to 6.30 | CN(C)C(=O)c1cc2cnc(Nc3ccc(N4CCC(N(C)Cc5ccc(C6CCC(=O)NC6=O)cc5)CC4)cn3)nc2n1C1CCCC1 (stereo not shown) [GT-06490, 7-cyclopentyl-2-((5-(4-((4-(2,6-dioxopiperidin-3-yl)benzyl)(methyl)amino)piperidin-1-yl)pyridin-2-yl)amino)-N,N-dimethyl-7H-pyrrolo[2,3-d]pyrimidine-6-carboxamide]
18 | 5.72 to 6.00 | COC1CCN(c2nccc(Nc3cc4c(cn3)c(N3CCN(Cc5ccc(C6CCC(=O)NC6=O)cc5)CC3)nn4C(C)C)n2)CC1 (stereo not shown) [GT-06036, 3-(4-((4-(1-isopropyl-6-((2-(4-methoxypiperidin-1-yl)pyrimidin-4-yl)amino)-1H-pyrazolo[4,3-c]pyridin-3-yl)piperazin-1-yl)methyl)phenyl)piperidine-2,6-dione]
19 | 6.00 to 6.30 | CN(Cc1ccc(C2CCC(=O)NC2=O)cc1)C1CCN(c2ccc(-c3cc(F)c4c(c3)C(=O)N(C(C(=O)Nc3nccs3)c3ncn5c3CCC5)C4)cc2)CC1 (stereo not shown) [GT-05218, 2-(6,7-dihydro-5H-pyrrolo[1,2-c]imidazol-1-yl)-2-(6-(4-(4-((4-(2,6-dioxopiperidin-3-yl)benzyl)(methyl)amino)piperidin-1-yl)phenyl)-4-fluoro-1-oxoisoindolin-2-yl)-N-(thiazol-2-yl)acetamide]
20 | 6.00 to 6.30 | NC(=O)c1ncc(N2CCCCC2)nc1Nc1ccc(C2CCN(Cc3ccc(C4CCC(=O)NC4=O)cc3)CC2)cc1 (stereo not shown) [GT-04785, 3-((4-(1-(4-(2,6-dioxopiperidin-3-yl)benzyl)piperidin-4-yl)phenyl)amino)-5-(piperidin-1-yl)pyrazine-2-carboxamide]
21 | 5.72 to 6.00 | CN(C)C(=O)c1cc2cnc(Nc3ccc(N4CCC(N(C)Cc5cccc(N6CCC(=O)NC6=O)c5)CC4)cn3)nc2n1C1CCCC1 [GT-06492, 7-cyclopentyl-2-((5-(4-((3-(2,4-dioxotetrahydropyrimidin-1(2H)-yl)benzyl)(methyl)amino)piperidin-1-yl)pyridin-2-yl)amino)-N,N-dimethyl-7H-pyrrolo[2,3-d]pyrimidine-6-carboxamide]
22 | 6.00 to 6.30 | COc1cc(N2CCC(N(C)Cc3ccc(N4CCC(=O)NC4=O)cn3)CC2)c(C)cc1Nc1ncc(Br)c(Nc2ccc3nccnc3c2P(C)(C)=O)n1 [GT-05952, 1-(6-(((1-(4-((5-bromo-4-((5-(dimethylphosphoryl)quinoxalin-6-yl)amino)pyrimidin-2-yl)amino)-5-methoxy-2-methylphenyl)piperidin-4-yl)(methyl)amino)methyl)pyridin-3-yl)dihydropyrimidine-2,4(1H,3H)-dione]
